Where a name gives a salt, the structure may show the parent alone.
Target: T1, NO-Synthase (iNOS) (Mus musculus, UniProt P29477)
T1 construct: Während der Stimulation über 4 Stunden wird die Neusynthese des NO-produzierenden Enzyms NO-Synthase (iNOS) induziert; endogenous in cells; host or cells: RAW 264.7 mouse macrophages stimulated with LPS and γ-interferon
Assay: NO measurement by oxyhaemoglobin on LPS/γ-interferon-stimulated macrophages (inhibition of NO release)
Format: cell-based, Maus
Conditions: Mäusemakrophagen RAW 264.7, stimulated 4 h with 140 ng LPS/ml + 5 U γIFN/ml; 120 min incubation with test substance; Extinktionsdifferenz 576-592 nm vs. stimulation control
Procedure: Die Hemmung der NO-Freisetzung durch die Verbindungen der allgemeinen Formel I kann auch durch NO-Messung mittels Oxyhämoglobin auf Makrophagen wie folgt bestimmt werden: Mäusemakrophagen (MM) des Stammes RAW 264.7 werden in Petrischalen (10 cm Durchmesser) angezüchtet. Als Nährmedium wird DMEM (Fa. Sigma Nr. D 5405), konditioniert mit 4 mM l-Glutamin, 3,5 g D-Glukose/l, 50 U/50 µg/ml Pen/Strep und 10 % FKS, eingesetzt unter 5 % CO2, 95 % Luftfeuchtigkeit, 37°C. Die subkonfluenten Zellen werden mit dem Zellschaber abgekratzt, in Medium aufgenommen, die Zellzahl bestimmt (Zählung in Trypanblaulösung 0,2 %) und in 24-Napfplatten (1 x 10^6 Zellen/ml, 1 ml/Napf) ausgesät.
Ca. 18 Stunden nach Aussaat werden die gut adherierten Mausmakrophagen mit LPS (Lipopolysaccharid von E. coli Serotyp 0111:B4, Fa. Sigma Nr. L 2630) und γ-Interferon (γIFN, Maus rekombinant, Firma Boehringer Mannheim Nr. 1276905) stimuliert. Dazu wird das Kulturmedium von den Zellen abgesaugt und 1 ml/Napf (24-Napfplatte) Inkubationsmedium (MEM ohne Phenolrot (Biochrom F0385)), konditioniert mit 4mM Glutamin, 3,5 g Glukose/l, 3,7 g NaHCO3/l, 110 mg Natriumpyruvat/l, 50 U/50 µg/ml Pen/Strep und 5 % FKS, aufgegeben. Pro ml Inkubationsmedium werden 1 µl LPS und 1 µl γIFN pipettiert.
Daraus ergeben sich folgende Konzentrationen der Stimulatoren: 140 ng LPS/ml + 5 U γIFN/ml [formula] […]

With `NC1=NCCCCS1` [Beispiel 1, 2-Amino-4,5,6,7-tetrahydro-1,3-thiazepin-Hydrochlorid] the IC50 was 1300 nM.

Source: patent EP0718294A1, “2-Amino-1,3-thiazepines and their use as inhibitors of the nitrogene oxide synthase” (HOECHST AKTIENGESELLSCHAFT, priority 1994, dated 1996)
